Experimental data published in publication PMC2409929 (British Journal of Cancer, 2004).
Read-outs that look alike come from different tables or passages of the source. Marks after values point to notes of the source that are not given here.

Key:
[1] = test system: patients with metastatic colorectal cancer; experiment: Toxicity graded by NCI-CTC in the phase II trial; format: in vivo, human; settings: for Anaemia, Grade 3–4, %Patients / Anaemia, all grades, %Patients / Leukocytopenia, Grade 3–4, %Patients / Leukocytopenia, all grades, %Patients / Neutropenia, Grade 3–4, %Patients / Neutropenia, all grades, %Patients / Thrombocytopenia, Grade 3–4, %Patients / Thrombocytopenia, all grades, %Patients: worst grade during study
Description: Haematology was checked weekly.
Otherwise, they were analysed by nonparametric methods. […] All tests for significance were two-tailed.

[2] = 140 mg m^−2: 10 mg m^−2 irinotecan as 14-day prolonged infusions, N=6, mean±s.d.; ref 16 (Herben et al, 1999); cited from earlier work
[3] = test system: patients with colorectal cancer; settings: same schedule as arm A (350 mg m^−2 q3 weeks), cited from earlier work
[4] = arm A (350 mg m^−2 90-min i.v. q3 weeks)
[5] = arm A (350 mg m^−2 90-min i.v. q3 weeks), possibly or probably related
[6] = arm B (125 mg m^−2 90-min i.v. weekly × 4 q6 weeks)
[7] = arm B (125 mg m^−2 90-min i.v. weekly × 4 q6 weeks), possibly or probably related
[8] = arm C (250 mg m^−2 90-min i.v. q2 weeks)
[9] = arm C (250 mg m^−2 90-min i.v. q2 weeks), possibly or probably related
[10] = arm D (10 mg m^−2 day^−1 14-day continuous infusion q3 weeks)
[11] = arm D (10 mg m^−2 day^−1 14-day continuous infusion q3 weeks), possibly or probably related

CCc1c2c(nc3ccc(OC(=O)N4CCC(N5CCCCC5)CC4)cc13)-c1cc3c(c(=O)n1C2)COC(=O)[C@]3(O)CC [irinotecan]
Anaemia, Grade 3–4, %Cycles [1, 4]: 1%
Anaemia, all grades, %Cycles [1, 4]: 92%
Episodes of grade 3–4 neutropenia with duration <8 days [1, 4]: 53%
Febrile neutropenia, %Patients [1, 4]: 75%
Leukocytopenia, Grade 3–4, %Cycles [1, 4]: 15%
Leukocytopenia, all grades, %Cycles [1, 4]: 70%
Neutropenia, Grade 3–4, %Cycles [1, 4]: 21%
Neutropenia, all grades, %Cycles [1, 4]: 65%
Neutropenic infection, %Cycles [1, 4]: 1%
Neutropenic infection, %Patients [1, 4]: 2%
Number of patients with at least one grade 3–4 adverse event possibly or probably related to irinotecan [1, 4]: 12
Patients with at least one grade 3–4 adverse event possibly or probably related to irinotecan, % [1, 4]: 29%
Thrombocytopenia, Grade 3–4, %Cycles [1, 4]: 0/0%
Thrombocytopenia, all grades, %Cycles [1, 4]: 14%
Alopecia, all grades, % of patients [1, 5]: 71 ^b %
Anorexia, all grades, % of patients [1, 5]: 12%
Cholinergic syndrome, all grades, % of patients [1, 5]: 68 ^a %
Diarrhoea, Grade 3–4, % of patients [1, 5]: 10%
Diarrhoea, all grades, % of patients [1, 5]: 88%
Fatigue, Grade 3–4, % of patients [1, 5]: 7%
Fatigue, all grades, % of patients [1, 5]: 51%
Fever in absence of infection, Grade 3–4, % of patients [1, 5]: 2%
Fever in absence of infection, all grades, % of patients [1, 5]: 12%
Gastrointestinal pain, Grade 3–4, % of patients [1, 5]: 2%
Gastrointestinal pain, all grades, % of patients [1, 5]: 17%
Infection, Grade 3–4, % of patients [1, 5]: 2%
Infection, all grades, % of patients [1, 5]: 7%
Nausea, Grade 3–4, % of patients [1, 5]: 15%
Nausea, all grades, % of patients [1, 5]: 73%
Vomiting, Grade 3–4, % of patients [1, 5]: 10%
Vomiting, all grades, % of patients [1, 5]: 54%
Median time to recovery from grade 3–4 neutropenia ([1]; arm A (350 mg m^−2 90-min i.v. q3 weeks), range 6–14): 7 days
Median number of days to grade 3–4 nadir (neutropenia) ([1]; arm A (350 mg m^−2 90-min i.v. q3 weeks), range 6–17): 9 days
Anaemia, Grade 3–4, %Patients [1, 4]: 2%
Anaemia, all grades, %Patients [1, 4]: 98%
Leukocytopenia, Grade 3–4, %Patients [1, 4]: 20%
Leukocytopenia, all grades, %Patients [1, 4]: 73%
Neutropenia, Grade 3–4, %Patients [1, 4]: 34%
Neutropenia, all grades, %Patients [1, 4]: 73%
Thrombocytopenia, Grade 3–4, %Patients [1, 4]: 0/0%
Thrombocytopenia, all grades, %Patients [1, 4]: 24%
Anaemia, Grade 3–4, %Cycles [1, 6]: 1%
Anaemia, all grades, %Cycles [1, 6]: 87%
Episodes of grade 3–4 neutropenia with duration <8 days [1, 6]: 77%
Febrile neutropenia, %Cycles [1, 6]: 2%
Febrile neutropenia, %Patients [1, 6]: 5%
Leukocytopenia, Grade 3–4, %Cycles [1, 6]: 6%
Leukocytopenia, all grades, %Cycles [1, 6]: 53%
Neutropenia, Grade 3–4, %Cycles [1, 6]: 12%
Neutropenia, all grades, %Cycles [1, 6]: 50%
Number of patients with at least one grade 3–4 adverse event possibly or probably related to irinotecan [1, 6]: 11
Patients with at least one grade 3–4 adverse event possibly or probably related to irinotecan, % [1, 6]: 30%
Thrombocytopenia, Grade 3–4, %Cycles [1, 6]: 0/0%
Thrombocytopenia, all grades, %Cycles [1, 6]: 6%
Alopecia, all grades, % of patients [1, 7]: 43%
Anorexia, all grades, % of patients [1, 7]: 14%
Cholinergic syndrome, all grades, % of patients [1, 7]: 41 ^a %
Diarrhoea, Grade 3–4, % of patients [1, 7]: 24%
Diarrhoea, all grades, % of patients [1, 7]: 76%
Fatigue, Grade 3–4, % of patients [1, 7]: 3%
Fatigue, all grades, % of patients [1, 7]: 38%
Fever in absence of infection, all grades, % of patients [1, 7]: 19%
Gastrointestinal pain, Grade 3–4, % of patients [1, 7]: 3%
Gastrointestinal pain, all grades, % of patients [1, 7]: 16%
Infection, Grade 3–4, % of patients [1, 7]: 5%
Infection, all grades, % of patients [1, 7]: 11%
Nausea, Grade 3–4, % of patients [1, 7]: 5%
Nausea, all grades, % of patients [1, 7]: 73%
Vomiting, Grade 3–4, % of patients [1, 7]: 3%
Vomiting, all grades, % of patients [1, 7]: 57%
Median time to recovery from grade 3–4 neutropenia ([1]; arm B (125 mg m^−2 90-min i.v. weekly × 4 q6 weeks), range 2–15): 7 days
Median number of days to grade 3–4 nadir (neutropenia) ([1]; arm B (125 mg m^−2 90-min i.v. weekly × 4 q6 weeks), range 4–13): 7 days
Anaemia, Grade 3–4, %Patients [1, 6]: 3%
Anaemia, all grades, %Patients [1, 6]: 92%
Leukocytopenia, Grade 3–4, %Patients [1, 6]: 14%
Leukocytopenia, all grades, %Patients [1, 6]: 68%
Neutropenia, Grade 3–4, %Patients [1, 6]: 25%
Neutropenia, all grades, %Patients [1, 6]: 61%
Thrombocytopenia, Grade 3–4, %Patients [1, 6]: 0/0%
Thrombocytopenia, all grades, %Patients [1, 6]: 11%
Anaemia, Grade 3–4, %Cycles [1, 8]: 4/4%
Anaemia, all grades, %Cycles [1, 8]: 90%
Discontinuation due to toxicity, main reason diarrhoea [1, 8]: 7%
Episodes of grade 3–4 neutropenia with duration <8 days [1, 8]: 84%
Febrile neutropenia, %Cycles [1, 8]: 1%
Febrile neutropenia, %Patients [1, 8]: 7%
Leukocytopenia, Grade 3–4, %Cycles [1, 8]: 6%
Leukocytopenia, all grades, %Cycles [1, 8]: 56%
Neutropenia, Grade 3–4, %Cycles [1, 8]: 20%
Neutropenia, all grades, %Cycles [1, 8]: 57%
Neutropenic infection, %Cycles [1, 8]: 1%
Neutropenic infection, %Patients [1, 8]: 2%
Number of patients with at least one grade 3–4 adverse event possibly or probably related to irinotecan [1, 8]: 14
Patients who discontinued treatment due to toxicity (from the study drug) [1, 8]: 11%
Patients with at least one grade 3–4 adverse event possibly or probably related to irinotecan, % [1, 8]: 30%
Thrombocytopenia, Grade 3–4, %Cycles [1, 8]: 0/0%
Thrombocytopenia, all grades, %Cycles [1, 8]: 6%
Alopecia, all grades, % of patients [1, 9]: 67 ^b %
Anorexia, all grades, % of patients [1, 9]: 17%
Cholinergic syndrome, Grade 3–4, % of patients [1, 9]: 2%
Cholinergic syndrome, all grades, % of patients [1, 9]: 61 ^a %
Diarrhoea, Grade 3–4, % of patients [1, 9]: 13%
Diarrhoea, all grades, % of patients [1, 9]: 74%
Fatigue, Grade 3–4, % of patients [1, 9]: 4%
Fatigue, all grades, % of patients [1, 9]: 61%
Fever in absence of infection, Grade 3–4, % of patients [1, 9]: 4%
Fever in absence of infection, all grades, % of patients [1, 9]: 15%
Gastrointestinal pain, Grade 3–4, % of patients [1, 9]: 2%
Gastrointestinal pain, all grades, % of patients [1, 9]: 17%
Infection, all grades, % of patients [1, 9]: 11%
Nausea, Grade 3–4, % of patients [1, 9]: 9%
Nausea, all grades, % of patients [1, 9]: 65%
Vomiting, Grade 3–4, % of patients [1, 9]: 9%
Vomiting, all grades, % of patients [1, 9]: 50%
Median time to recovery from grade 3–4 neutropenia ([1]; arm C (250 mg m^−2 90-min i.v. q2 weeks), range 1–12): 7 days
Median number of days to grade 3–4 nadir (neutropenia) ([1]; arm C (250 mg m^−2 90-min i.v. q2 weeks), range 6–17): 7 days
Anaemia, Grade 3–4, %Patients [1, 8]: 4/4%
Anaemia, all grades, %Patients [1, 8]: 91%
Leukocytopenia, Grade 3–4, %Patients [1, 8]: 15%
Leukocytopenia, all grades, %Patients [1, 8]: 70%
Neutropenia, Grade 3–4, %Patients [1, 8]: 28%
Neutropenia, all grades, %Patients [1, 8]: 65%
Thrombocytopenia, Grade 3–4, %Patients [1, 8]: 0/0%
Thrombocytopenia, all grades, %Patients [1, 8]: 15%
Anaemia, Grade 3–4, %Cycles [1, 10]: 0/0%
Anaemia, all grades, %Cycles [1, 10]: 83%
Discontinuation due to toxicity, main reason diarrhoea [1, 10]: 14%
Discontinuation due to toxicity, main reason vomiting [1, 10]: 14%
Episodes of grade 3–4 neutropenia with duration <8 days [1, 10]: 25%
Leukocytopenia, Grade 3–4, %Cycles [1, 10]: 3%
Leukocytopenia, all grades, %Cycles [1, 10]: 24%
Neutropenia, Grade 3–4, %Cycles [1, 10]: 5%
Neutropenia, all grades, %Cycles [1, 10]: 15%
Neutropenic infection, %Cycles [1, 10]: 1%
Neutropenic infection, %Patients [1, 10]: 2%
Number of patients with at least one grade 3–4 adverse event possibly or probably related to irinotecan [1, 10]: 22
Patients who discontinued treatment due to toxicity (from the study drug) [1, 10]: 21%
Patients with at least one grade 3–4 adverse event possibly or probably related to irinotecan, % [1, 10]: 50%
Thrombocytopenia, Grade 3–4, %Cycles [1, 10]: 3%
Thrombocytopenia, all grades, %Cycles [1, 10]: 8%
Alopecia, all grades, % of patients [1, 11]: 34 ^b %
Anorexia, Grade 3–4, % of patients [1, 11]: 5%
Anorexia, all grades, % of patients [1, 11]: 34%
Cholinergic syndrome, all grades, % of patients [1, 11]: 7 ^a %
Diarrhoea, Grade 3–4, % of patients [1, 11]: 25%
Diarrhoea, all grades, % of patients [1, 11]: 77%
Fatigue, Grade 3–4, % of patients [1, 11]: 7%
Fatigue, all grades, % of patients [1, 11]: 52%
Fever in absence of infection, all grades, % of patients [1, 11]: 16%
Gastrointestinal pain, Grade 3–4, % of patients [1, 11]: 2%
Gastrointestinal pain, all grades, % of patients [1, 11]: 23%
Infection, Grade 3–4, % of patients [1, 11]: 7%
Infection, all grades, % of patients [1, 11]: 11%
Nausea, Grade 3–4, % of patients [1, 11]: 23%
Nausea, all grades, % of patients [1, 11]: 80%
Vomiting, Grade 3–4, % of patients [1, 11]: 16%
Vomiting, all grades, % of patients [1, 11]: 59%
Median time to recovery from grade 3–4 neutropenia ([1]; arm D (10 mg m^−2 day^−1 14-day continuous infusion q3 weeks), range 4–4): 4 days
Median number of days to grade 3–4 nadir (neutropenia) ([1]; arm D (10 mg m^−2 day^−1 14-day continuous infusion q3 weeks), range 14–19): 16 days
Anaemia, Grade 3–4, %Patients [1, 10]: 0/0%
Anaemia, all grades, %Patients [1, 10]: 91%
Leukocytopenia, Grade 3–4, %Patients [1, 10]: 5%
Leukocytopenia, all grades, %Patients [1, 10]: 30%
Neutropenia, Grade 3–4, %Patients [1, 10]: 9%
Neutropenia, all grades, %Patients [1, 10]: 23%
Thrombocytopenia, Grade 3–4, %Patients [1, 10]: 5%
Thrombocytopenia, all grades, %Patients [1, 10]: 9%
Irinotecan AUC [2]: 12.8 ± 3.9 µmol·h/L
Median survival ([3]; ref Cunningham et al (1998)): 9.2 months
Median survival ([3]; ref Rougier et al (1997)): 10.8 months
